These results are taken from patent US20100227859A1, “TRICYCLIC COMPOUNDS AS MATRIX METALLOPROTEINASE INHIBITORS” (priority 2007, published 2010).

Some results are limits rather than exact numbers.

This experiment deals with purified human MMP-12 enzyme (Homo sapiens, UniProt P39900). Briefly: MMP-12 FRET assay. The experiment is classed as biochemical. The conditions noted are these: substrate 20 μM, room temperature. The method in brief: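 Enzyme pre-incubated 30 min at room temperature with compound in 50 mM HEPES pH 7.4, 100 mM NaCl, 5 mM CaCl2, 0.005% Brij-35, 10% DMSO final. Reaction started with 20 μM MCA-Pro-Leu-Gly-Leu-Dpa(DNP)-Ala-Arg, and initial cleavage rate read over 30 min (λex 325, λem 395 nm). IC50 from slope-factor inhibition fit.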
Sequence of purified human MMP-12 enzyme (P39900 106-470): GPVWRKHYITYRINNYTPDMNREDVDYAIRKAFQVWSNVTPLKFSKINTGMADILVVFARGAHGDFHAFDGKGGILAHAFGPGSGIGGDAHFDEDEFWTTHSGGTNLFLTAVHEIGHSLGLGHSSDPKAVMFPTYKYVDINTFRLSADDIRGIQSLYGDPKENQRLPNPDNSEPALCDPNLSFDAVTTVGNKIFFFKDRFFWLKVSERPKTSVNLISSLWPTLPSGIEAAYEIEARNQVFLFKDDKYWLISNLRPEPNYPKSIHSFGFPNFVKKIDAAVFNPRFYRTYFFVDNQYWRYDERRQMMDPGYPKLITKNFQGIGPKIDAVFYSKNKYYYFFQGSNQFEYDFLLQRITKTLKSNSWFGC
For orientation: IC50 means the concentration needed to halve the response being measured. Lower therefore signals greater potency in that assay. With `CC(=O)c1ccc(-c2ccc3sc4cc(S(=O)(=O)N[C@H](C(=O)O)C(C)C)ccc4c3c2)s1` [Compound 47, (S)-2-(8-(5-acetylthiophen-2-yl)dibenzo[b,d]thiophene-3-sulfonamido)-3-methylbutanoic acid], it took 2.9 nM to reach half-maximal inhibition (IC50).

`CC(C)[C@H](NS(=O)(=O)c1ccc2c(c1)oc1ccc(-c3nc(-c4ccc(F)cc4)cs3)cc12)C(=O)O` [Compound 284, (S)-2-(8-(4-(4-fluorophenyl)thiazol-2-yl)dibenzo[b,d]furan-3-sulfonamido)-3-methylbutanoic acid] had a 50% inhibitory concentration (IC50) of 18 nM.

For `CC(C)[C@H](NS(=O)(=O)c1ccc2c(c1)oc1ccc(-c3nc4c(F)c(F)c(F)cc4s3)cc12)C(=O)O` [Compound 222, (S)-3-methyl-2-(8-(4,5,6-trifluorobenzo[d]thiazol-2-yl)dibenzo[b,d]furan-3-sulfonamido)butanoic acid], half-maximal inhibition (IC50) was put at 4.9 nM. The compound `CC(C)(C)c1nc(-c2ccc3c(c2)oc2ccc(S(=O)(=O)N[C@H](Cc4ccccc4)C(=O)O)cc23)no1` [Compound 275, (R)-2-(7-(5-tert-butyl-1,2,4-oxadiazol-3-yl)dibenzo[b,d]furan-2-sulfonamido)-3-phenylpropanoic acid] gave an IC50 of 4.1 nM. As for `CC(C)(C)c1nc(-c2ccc3c(c2)oc2ccc(S(=O)(=O)N[C@@H](Cc4c[nH]c5ccccc45)C(=O)O)cc23)no1` [Compound 280], the figure is 15 nM; as for `CC(C)[C@H](NS(=O)(=O)c1ccc2c(c1)oc1ccc(C3=NCCO3)cc12)C(=O)O` [Compound 83, (S)-2-(8-(4,5-dihydrooxazol-2-yl)dibenzo[b,d]furan-3-sulfonamido)-3-methylbutanoic acid], 2.8 nM; as for `CC(C)(C)c1nc(-c2ccc3oc4cc(S(=O)(=O)N[C@H](C(=O)O)c5ccccc5)ccc4c3c2)no1` [Compound 254, (S)-2-(8-(5-tert-butyl-1,2,4-oxadiazol-3-yl)dibenzo[b,d]furan-3-sulfonamido)-2-phenylacetic acid], 21 nM. The compound `CC(C)[C@H](NS(=O)(=O)c1ccc2c(c1)oc1cc(-c3nc4ccccc4o3)ccc12)C(=O)O` [Compound 227, (S)-2-(7-(benzo[d]oxazol-2-yl)dibenzo[b,d]furan-3-sulfonamido)-3-methylbutanoic acid] came in with an IC50 of 6.1 nM. `CC(C)[C@H](NS(=O)(=O)c1ccc2c(c1)oc1ccc(-c3cc4ccccc4s3)cc12)C(=O)O` [Compound 13, (S)-2-(8-(benzo[b]thiophen-2-yl)dibenzo[b,d]furan-3-sulfonamido)-3-methylbutanoic acid]: it took 1.7 nM to reach half-maximal inhibition (IC50). Under `Cc1nc(-c2ccc(C(F)(F)F)cc2)sc1-c1ccc2c(c1)oc1ccc(S(=O)(=O)N[C@@H](C(=O)O)C(C)C)cc12` [Compound 177, (R)-3-methyl-2-(7-(4-methyl-2-(4-(trifluoromethyl)phenyl)thiazol-5-yl)dibenzo[b,d]furan-2-sulfonamido)butanoic acid] stands 740 nM. `CC(C)[C@H](NS(=O)(=O)c1ccc2c(c1)oc1ccc(-c3noc(-c4ccc(F)cc4F)n3)cc12)C(=O)O` [Compound 269, (S)-2-(8-(5-(2,4-difluorophenyl)-1,2,4-oxadiazol-3-yl)dibenzo[b,d]furan-3-sulfonamido)-3-methylbutanoic acid]: the IC50 is below 1.5 nM. In turn, `Cc1noc(C)c1-c1ccc2oc3cc(S(=O)(=O)N[C@H](C(=O)O)C(C)C)ccc3c2c1` [Compound 9, (S)-2-(8-(3,5-dimethylisoxazol-4-yl)dibenzo[b,d]furan-3-sulfonamido)-3-methylbutanoic acid] yielded a 50% inhibitory concentration (IC50) of 10.7 nM.

`CC(C)(C)c1nc(-c2ccc3oc4cc(S(=O)(=O)N[C@H](Cc5c[nH]c6ccccc56)C(=O)O)ccc4c3c2)no1` [Compound 256, (R)-2-(8-(5-tert-butyl-1,2,4-oxadiazol-3-yl)dibenzo[b,d]furan-3-sulfonamido)-3-(1H-indol-3-yl)propanoic acid] registered an IC50 of 129 nM. In turn, `CC(C)(C)c1nc(-c2ccc3c(c2)oc2ccc(S(=O)(=O)N[C@H](C(=O)O)C(C)(C)C)cc23)no1` [Compound 282, (S)-2-(7-(5-tert-butyl-1,2,4-oxadiazol-3-yl)dibenzo[b,d]furan-2-sulfonamido)-3,3-dimethylbutanoic acid] had an IC50 of 150 nM.

The compound `CC(C)[C@H](NS(=O)(=O)c1ccc2c(c1)oc1ccc(-c3ccc4oc5cc(S(=O)(=O)N[C@H](C(=O)O)C(C)C)ccc5c4c3)cc12)C(=O)O` [Compound 125] registered an IC50 of 17 nM.

Compound `CC(C)[C@@H](NS(=O)(=O)c1ccc2oc3cc(-c4noc(C5CCCCC5)n4)ccc3c2c1)C(=O)O` [Compound 192, (R)-2-(7-(5-cyclohexyl-1,2,4-oxadiazol-3-yl)dibenzo[b,d]furan-2-sulfonamido)-3-methylbutanoic acid] yielded a half-maximal inhibitory concentration (IC50) of 7.2 nM. `CC(C)(C)c1nc(-c2ccc3c(c2)oc2ccc(S(=O)(=O)N[C@H](C(=O)O)c4ccccc4)cc23)no1` [Compound 281, (S)-2-(7-(5-tert-butyl-1,2,4-oxadiazol-3-yl)dibenzo[b,d]furan-2-sulfonamido)-2-phenylacetic acid] displayed an IC50 of 90 nM. Take `CC(C)[C@@H](NS(=O)(=O)c1ccc2oc3cc(-c4noc(C5CCC5)n4)ccc3c2c1)C(=O)O` [Compound 148, (R)-2-(7-(5-cyclobutyl-1,2,4-oxadiazol-3-yl)dibenzo[b,d]furan-2-sulfonamido)-3-methylbutanoic acid]: the IC50 was below 1.5 nM.

In the case of `CC(C)Cn1cc(-c2ccc3c(c2)oc2ccc(S(=O)(=O)N[C@@H](C(=O)O)C(C)C)cc23)cn1` [Compound 173, (R)-2-(7-(1-isobutyl-1H-pyrazol-4-yl)dibenzo[b,d]furan-2-sulfonamido)-3-methylbutanoic acid], the midpoint of inhibition, the IC50, lay at 80 nM.

For the compound `CC(C)[C@@H](NS(=O)(=O)c1ccc2oc3cc(-c4nc5ccccc5o4)ccc3c2c1)C(=O)O` [Compound 294, (R)-2-(7-(benzo[d]oxazol-2-yl)dibenzo[b,d]furan-2-sulfonamido)-3-methylbutanoic acid], the IC50 is 9.5 nM. This IC50 lies about 8.4-fold lower than the previous one. As for `CC(C)[C@H](NS(=O)(=O)c1ccc2c(c1)oc1ccc(-c3ccoc3Cl)cc12)C(=O)O` [Compound 94, (S)-2-(8-(2-chlorofuran-3-yl)dibenzo[b,d]furan-3-sulfonamido)-3-methylbutanoic acid], the figure is below 1.5 nM; as for `CC(C)[C@H](NS(=O)(=O)c1ccc2c(c1)sc1cc(-c3ccc(Cl)o3)ccc12)C(=O)O` [Compound 182, (S)-2-(7-(5-chlorofuran-2-yl)dibenzo[b,d]thiophene-3-sulfonamido)-3-methylbutanoic acid], below 1.5 nM. The compound `CC(C)[C@H](NS(=O)(=O)c1ccc2c(c1)oc1ccc(-c3noc(Cc4ccccc4)n3)cc12)C(=O)O` [Compound 266, (S)-2-(8-(5-benzyl-1,2,4-oxadiazol-3-yl)dibenzo[b,d]furan-3-sulfonamido)-3-methylbutanoic acid] had an IC50 of 4 nM. In turn, `CCCn1cc(-c2ccc3oc4cc(S(=O)(=O)N[C@H](C(=O)O)C(C)C)ccc4c3c2)cn1` [Compound 21, (S)-3-methyl-2-(8-(1-propyl-1H-pyrazol-4-yl)dibenzo[b,d]furan-3-sulfonamido)butanoic acid] gave an IC50 below 1.5 nM. `Cc1nc(-c2ccc3c(c2)oc2ccc(S(=O)(=O)N[C@@H](C(=O)O)C(C)C)cc23)no1` [Compound 139, (R)-3-methyl-2-(7-(5-methyl-1,2,4-oxadiazol-3-yl)dibenzo[b,d]furan-2-sulfonamido)butanoic acid] gave an IC50 of 9.2 nM. Under `CC(C)[C@H](NS(=O)(=O)c1ccc2c(c1)oc1ccc(-c3cccnc3)cc12)C(=O)O` [Compound 3, (S)-3-methyl-2-(8-(pyridin-3-yl)dibenzo[b,d]furan-3-sulfonamido)butanoic acid] stands below 1.5 nM. The compound `CC(C)[C@H](NS(=O)(=O)c1ccc2c(c1)sc1ccc(-c3cnn(Cc4ccccc4)c3)cc12)C(=O)O` [Compound 44, (S)-2-(8-(1-benzyl-1H-pyrazol-4-yl)dibenzo[b,d]thiophene-3-sulfonamido)-3-methylbutanoic acid] displayed an IC50 of 65 nM.

`CC(=O)c1ccc(-c2ccc3c(c2)oc2ccc(S(=O)(=O)N[C@@H](C(=O)O)C(C)C)cc23)s1` [Compound 105, (R)-2-(7-(5-acetylthiophen-2-yl)dibenzo[b,d]furan-2-sulfonamido)-3-methylbutanoic acid]: the IC50 came out at 21.8 nM.

For the compound `CC(C)[C@@H](NS(=O)(=O)c1ccc2sc3cc(-c4nc5ccccc5s4)ccc3c2c1)C(=O)O` [Compound 286, (R)-2-(7-(benzo[d]thiazol-2-yl)dibenzo[b,d]thiophene-2-sulfonamido)-3-methylbutanoic acid], the 50% inhibitory concentration (IC50) was found to be 130 nM. As for `CC(C)[C@@H](NS(=O)(=O)c1ccc2c(c1)sc1cc(-c3ccccc3)ccc12)C(=O)O` [Compound 314, (R)-3-methyl-2-(7-phenyldibenzo[b,d]thiophene-3-sulfonamido)butanoic acid], the figure is 2.6 nM. On to `CC(C)[C@H](NS(=O)(=O)c1ccc2c(c1)oc1ccc(-c3nc4ccc(Cl)cc4s3)cc12)C(=O)O` [Compound 203, (S)-2-(8-(6-chlorobenzo[d]thiazol-2-yl)dibenzo[b,d]furan-3-sulfonamido)-3-methylbutanoic acid], for which it took 4.1 nM to reach half-maximal inhibition (IC50). On to `CC(C)[C@@H](NS(=O)(=O)c1ccc2oc3cc(-c4nccs4)ccc3c2c1)C(=O)O` [Compound 291, (R)-3-methyl-2-(7-(thiazol-2-yl)dibenzo[b,d]furan-2-sulfonamido)butanoic acid], for which the IC50 came to 5.2 nM. The IC50 values of the last two compounds are within 1.5-fold of each other. Turning to `Cc1ccc2nc(-c3ccc4oc5cc(S(=O)(=O)N[C@H](C(=O)O)C(C)C)ccc5c4c3)sc2c1` [Compound 210, (S)-3-methyl-2-(8-(6-methylbenzo[d]thiazol-2-yl)dibenzo[b,d]furan-3-sulfonamido)butanoic acid], the IC50 amounted to 12 nM.
